Measurements taken from US20140148412A1, “NOVEL 17B-HETEROARYL-S[…] AS MODULATORS OF GABAA RECEPTORS” (THE REGENTS OF THE UNIVERSITY OF CLAIFORNIA, priority 2011, published 2014).

Tests used:
mice [1] = experiment: Mouse elevated plus maze (EPM); type: in vivo; settings: dosed in 20% 2-hydroxypropyl-β-cyclodextrin
Procedure: Mouse Elevated Plus Maze (EPM)
Mice were group housed and handled daily for 3 days prior to testing in the EPM (Coulbourn Instruments). Testing was conducted in a dimly lit room, with two 60 W bulbs pointed at the ceiling near the open arms (4 ft. above the maze). The maze was cleaned between each run. Automated counting of time spent in the open arms of the maze was achieved by using Med Associates (St. Albans, Vt.) MedPC-IV program. Data were analyzed with GraphPad Prism 4.0 for statistical significance by one-way ANOVA with Dunnett's multiple comparison post-hoc test. Compounds that increase the amount of time the animals spend in the open arms have activity as anxiolytics.

mice [2] = experiment: Mouse rotarod (RR); type: in vivo; settings: dosed in 20% 2-hydroxypropyl-β-cyclodextrin
Procedure: Naïve mice were trained on a RR (Columbus Instruments, Columbus, Ohio) in 4 sessions (6-15 rpm) over 2 days to successfully complete the 2-min trial prior to final testing (6 rpm). On day 3, the mice were administered compound and tested over a period of 360 min at various intervals. The percentage of animals remaining on the RR throughout each 2-min trial was recorded. The results that coincided with the time of peak effect were analyzed by the method of Litchfield and Wilcoxon (Litchfield and Wilcoxon, J. Pharmacol. Exp. Ther., 1949, 96, 99) to determine the AD50 (ataxic half-maximal dose where half of the mice fail the RR assay). Compounds that have activity in the rotarod assay can indicate CNS depressive activity and sedative activity.

[3] = test system: pentylenetetrazole-induced seizures; experiment: Anticonvulsant assay, protection from pentylenetetrazole-induced seizures; type: in vivo; settings: oral dosing in 20% 2-hydroxypropyl-β-cyclodextrin; dose protecting half the animals from seizures
Procedure: The ability of compounds to protect against pentylenetetrazole-induced seizures was carried out as described by Hogenkamp, et al. J. Med. Chem. 2007, 50, 3369. The dose that protected half the animals from seizures was determined as the ED50.

[4] = molecular target: GABAA receptors (rat cerebral cortex P2 homogenate); experiment: [35S]TBPS binding assay; settings: inhibition of [35S]TBPS binding
Procedure: The cerebral cortex from male Sprague-Dawley rats (weighing 160-200 g) was removed immediately after decapitation and dissected over ice. A P2 homogenate was prepared for binding assay as previously described (Gee, 1987a). The tissue was homogenized in 0.32 M sucrose (J. T. Baker Chemical Co., Phillipsburg, N.J.) with a Teflon-coated pestle, followed by centrifugation at 1,000×g for 10 min. The supernatant was collected and centrifuged at 9,000×g for 20 min. The resultant P2 pellet was resuspended in ice-cold 50 mM sodium potassium phosphate buffer (pH 7.4) containing 200 mM NaCl and used immediately in binding assays. A 2 nM concentration of [^35S]TBPS (86 Ci/mmol; New England Nuclear, Boston, Mass.) was incubated with 100 μL of tissue homogenate (10% w/v) in the presence or absence of 5 μM GABA (Sigma Chem. Co., St. Louis, Mo.) and 5 μL aliquots of test drug dissolved in dimethyl sulfoxide (Sigma Chem. Co.) (≦10 μL of solvent used in all assays). At the concentration (≦1%) used, dimethyl sulfoxide had no effect on specific [^35S]TBPS binding. […] Filter-bound radioactivity was quantified by liquid scintillation spectrophotometry. The data were evaluated by nonlinear regression (GraphPad, Inc., San Diego, Calif.) to obtain IC50 (concentration at which half-maximal inhibition of radioligand occurs) and Imax (maximum percent inhibition) values. […]

[5] = molecular target: T1, human α1β1γ2 GABAA receptors (Homo sapiens, UniProt P14867+P18505); experiment: Oocyte electrophysiology, modulation of EC10 GABA response; type: cell-based; settings: oocytes expressing human α1β1γ2 GABAA receptors; % modulation above EC10 GABA control
T1 construct: expressed in transfected cells
Procedure: Preparation, micro-injection and maintenance of oocytes was as previously described (Ng et al., Proc. Natl. Acad. Sci., 2007, 104, 8059). Individual oocytes were injected with 0.005-50 ng of each subunit mRNA as follows (ratio of subunits in parentheses): GABAA receptor subunit combinations (α1,2, or 3, β1,2, or 3, γ2L or δ): (5:1:1). Stage IV-V oocytes were plucked from ovary membranes, defolliculized with collagenase Type IA (Worthington's) for 45 min and rinsed 10 times with Ringer's salt solution. cRNA was injected at 50 nL. Oocytes were tested 3-28 days after injection (n=3-7 per compound), in Ringer's salt solution by linear drug application method using electrodes with […] tip resistance. Changes in membrane current were passed through a pre-amp, then through a T200 patch amplifier (Axon Instruments), with a bandpass filter 2 kHz. pClamp software was used to monitor, record, and analyze data. All compounds were tested with a 30 second pretreatment prior to co-application with EC10 (concentration of GABA that evokes 10% of the maximum response) GABA for the control response. Responses in presence of test compound were calculated as % modulation above control. Concentration-response curves were fit to non-linear regression analysis on Prism 4.0 (GraphPad, San Diego, Calif.) for % maximal stimulation and EC50. […]

T1 sequence (P14867 28-456): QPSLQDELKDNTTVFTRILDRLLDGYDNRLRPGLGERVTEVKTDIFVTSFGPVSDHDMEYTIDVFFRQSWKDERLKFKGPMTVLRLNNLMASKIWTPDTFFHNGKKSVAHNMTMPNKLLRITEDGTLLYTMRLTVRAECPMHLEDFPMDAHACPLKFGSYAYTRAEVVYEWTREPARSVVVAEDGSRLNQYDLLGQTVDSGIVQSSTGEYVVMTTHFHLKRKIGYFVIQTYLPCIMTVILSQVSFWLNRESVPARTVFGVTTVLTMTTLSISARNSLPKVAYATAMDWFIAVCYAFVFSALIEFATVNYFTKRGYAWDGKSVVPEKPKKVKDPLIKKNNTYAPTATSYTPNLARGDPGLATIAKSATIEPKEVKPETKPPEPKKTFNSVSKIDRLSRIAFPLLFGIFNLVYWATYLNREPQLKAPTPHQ
T1 sequence (P18505 26-474): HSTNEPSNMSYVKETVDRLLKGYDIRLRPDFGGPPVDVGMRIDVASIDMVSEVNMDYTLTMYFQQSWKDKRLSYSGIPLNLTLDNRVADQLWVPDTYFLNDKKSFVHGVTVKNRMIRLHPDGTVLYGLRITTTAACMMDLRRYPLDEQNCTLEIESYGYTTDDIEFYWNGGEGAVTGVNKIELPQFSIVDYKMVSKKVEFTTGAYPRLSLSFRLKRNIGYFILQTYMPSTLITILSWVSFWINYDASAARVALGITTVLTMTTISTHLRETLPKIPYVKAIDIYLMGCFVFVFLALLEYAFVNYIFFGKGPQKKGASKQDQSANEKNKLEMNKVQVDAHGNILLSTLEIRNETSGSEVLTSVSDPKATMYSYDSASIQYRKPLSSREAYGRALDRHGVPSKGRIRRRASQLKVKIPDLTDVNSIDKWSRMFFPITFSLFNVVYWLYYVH
T1 sequence (P18507 40-475 partner): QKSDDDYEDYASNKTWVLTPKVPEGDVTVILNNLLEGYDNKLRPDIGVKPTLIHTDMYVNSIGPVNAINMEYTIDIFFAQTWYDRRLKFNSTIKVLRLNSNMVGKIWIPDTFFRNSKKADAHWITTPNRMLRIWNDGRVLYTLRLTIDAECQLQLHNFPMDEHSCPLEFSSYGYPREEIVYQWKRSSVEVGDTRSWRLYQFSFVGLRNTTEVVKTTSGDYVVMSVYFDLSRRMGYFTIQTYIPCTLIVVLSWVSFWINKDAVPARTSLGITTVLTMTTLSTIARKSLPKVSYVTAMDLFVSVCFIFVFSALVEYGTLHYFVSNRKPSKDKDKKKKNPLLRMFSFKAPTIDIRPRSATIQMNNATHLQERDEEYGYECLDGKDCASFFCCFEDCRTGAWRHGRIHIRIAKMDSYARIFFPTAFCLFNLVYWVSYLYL

## C[C@@]1(O)CC[C@@]2(C)[C@@H](CC[C@@H]3[C@@H]2CC[C@]2(C)[C@@H](c4cc(CO)no4)CC[C@@H]32)C1
other
  melting point: 192 to 193 °C

## C[C@@]1(O)CC[C@@]2(C)[C@@H](CC[C@@H]3[C@@H]2CC[C@]2(C)[C@@H](c4cc(CO)on4)CC[C@@H]32)C1 [3-[3α-hydroxy-3β-methyl-5α-androstan-17β-yl]-5-(hydroxymethyl)isoxazole]
Mice [1]
  minimum effective oral dose: 1 mg/kg
other
  melting point: 198.5 to 200 °C
Mice [2]
  oral AD50 (ataxic half-maximal dose): 43 mg/kg
[3]
  ED50: 4 mg/kg

## C[C@@]1(O)CC[C@@]2(C)[C@@H](CC[C@@H]3[C@@H]2CC[C@]2(C)[C@@H](c4cn5ccccc5n4)CC[C@@H]32)C1 [2-[3α-Hydroxy-3β-methyl-5α-androstan-17β-yl]-imidazo[1,2-a]pyridine]
[4]
  IC50: 1 µM
  Imax (maximum percent inhibition): 100%

## C[C@@]1(O)CC[C@@]2(C)[C@@H](CC[C@@H]3[C@@H]2CC[C@]2(C)[C@@H](c4ccno4)CC[C@@H]32)C1 [5-[3α-hydroxy-3β-methyl-5α-androstan-17β-yl]-isoxazole]
[5]
  maximum modulation: 400%
